{
  "source": "patent US20110033418A1",
  "about": "“TREATMENT OF DISEASES CAUSED BY VIRAL INFECTION” (priority 2009, published 2011)",
  "key": {"Ljungan virus (LV) [1]": {"system": "Ljungan virus (LV)", "details": "number of 7 mice; 200 mg per kg orally daily for 50 days from day 35; terminated at day 120", "experimental": "An ALS mouse model was used in which the mice are transgenic for superoxide dismutase 1 (SOD1). […] The inventors treated the LV infection in these mice using two different antiviral compounds separately and in combination. One group of mice was kept as a control.\nGroups of seven 35 day old B6SJL-Tg-SOD1-G93 mice were treated with two antiviral compounds, Pleconaril and Ribavirin (200 mg of each per kg body weight), orally with a tube connected to a syringe daily for 50 consecutive days. Mice were observed every day for signs of paralysis.\nThe experiment was terminated at day 120 when all untreated animals were expected to have developed severe paralysis and death."}, "LV": {"system": "LV", "test": "Inhibitory effect on LV in tissue culture", "type": "cell-based", "excerpt": "Antiviral agents Pleconaril (VP-63843) a novel, orally bio-available, broad spectrum anti-picorna-viral agent developed as a therapeutic tool in entero- and rhino viral infections, was used alone or in combination with specific antiserum for intervention."}, "Ljungan virus (LV) [2]": {"system": "Ljungan virus (LV)", "test": "Diabetes in male CD-1 mice infected with LV in utero and subjected to stress (glucose tolerance test, abdominal fat, serum insulin)", "type": "in vivo", "procedure": "Animals CD-1 (ICR) mice were obtained from Br Charles River laboratories, Germany. Glucose tolerance test was performed to diagnose diabetes. In this test 2 g glucose per kg body weight was injected intraperitoneally (as 100 mg glucose/ml solution). Blood glucose was measured (Medisence Precision PCx Abbott Laboratories) before the injection of glucose and after 60 and 120 min. Diabetes was defined as a blood glucose level above 200 mg/dL at 120 min. Abdominal fat in male mice was measured by dissecting out the bilateral scrotal fat cushion. The total weight of both fat cushions was used.\nAnalysis of insulin Serum insulin was measured using a rat insulin ELISA kit (Mercodia AB).\nTransmission of LV to CD-1 mice followed by antiviral treatments Pregnant outbred CD1 mice were infected intraperitoneally with 1000 ID50 (determined by intra cerebral titration in suckling mice) units of LV145 SL two days after conception. Control animals were given an injection of saline. All female mice were kept in individual cages and followed for the development of gestational diabetes, pregnancy outcome and development of diabetes in the offspring. In all the pregnant mice mild stress was induced by adding glucose (100 g/L) to drinking water, performing weekly weights and a glucose tolerance test at the end of the pregnancy. At five weeks of age antiviral therapy to the male offsprings, using LV-specific murine antiserum or the oral antiviral compound Pleconaril (200 mg per kg body weight) or a combination of both, were given once a day for four consecutive days. The control groups of infected and uninfected male offsprings were untreated. From the age of 25 days all mice were subjected to stress by placing 4-5 male mice from different litters in the same cage. At 15 weeks of age the animals were subjected to a glucose tolerance test. Serum insulin levels and abdominal fat were measured.\nStatistics The glucose tolerance test in the CD-1 mice was evaluated by Fisher's exact one sided test. Otherwise statistical significance in the CD-1 mice was evaluated by Student's t-test. P values <0.05 were considered significant. Data are presented as means±s.e.m."}},
  "data": [
    {"molecule": "Cc1cc(CCCOc2c(C)cc(-c3noc(C(F)(F)F)n3)cc2C)on1", "note": "[Pleconaril, (3-[3,5-dimethyl-4-[[3-(3-methyl-5-isoxazolyl)propyl]oxy]phenyl]-5-(trifluoromethyl)-1,2,4-oxadiazole)]", "values": [
      {"measurement": "Mice with paralysis (including death)", "setting": "Ljungan virus (LV) [1]", "result": 5},
      {"measurement": "Mice without paralysis", "setting": "Ljungan virus (LV) [1]", "result": 2},
      {"measurement": "inhibitory effect on LV", "setting": "LV", "result": "some inhibitory effect on LV"},
      {"measurement": "No. with blood glucose >200 mg/dL at 120 min (percent of group)", "setting": "Ljungan virus (LV) [2]; glucose tolerance test at 15 weeks of age, LV infected, stressed male CD-1 mice", "result": 9, "unit": "%"},
      {"measurement": "Blood glucose at 60 min", "setting": "Ljungan virus (LV) [2]; glucose tolerance test, 2 g glucose per kg i.p., means±s.e.m.", "result": "211 ± 23.8", "unit": "mg/dL"},
      {"measurement": "No. with blood glucose >200 mg/dL at 120 min", "setting": "Ljungan virus (LV) [2]; number of mice, glucose tolerance test at 15 weeks of age, LV infected, stressed male CD-1 mice, treatment once a day for four days at five weeks of age", "result": 1},
      {"measurement": "Serum insulin", "setting": "Ljungan virus (LV) [2]; rat insulin ELISA, means±s.e.m.", "result": "4.15 ± 1.52", "unit": "µg/L"},
      {"measurement": "Abdominal fat", "setting": "Ljungan virus (LV) [2]; total weight of bilateral scrotal fat cushions, means±s.e.m.", "result": "2.1 ± 0.31", "unit": "g"}
    ]},
    {"molecule": "NC(=O)c1ncn([C@@H]2O[C@H](CO)[C@@H](O)[C@H]2O)n1", "note": "[Ribavirin, 1-[(2R,3R,4S,5R)-3,4-dihydroxy-5-(hydroxymethyl)oxolan-2-yl]-1H-1,2,4-triazole-3-carboxamide]", "values": [
      {"measurement": "Mice with paralysis (including death)", "setting": "Ljungan virus (LV) [1]", "result": 6},
      {"measurement": "Mice without paralysis", "setting": "Ljungan virus (LV) [1]", "result": 1}
    ]}
  ]
}
